Drawing on US20150011751A1, “NOVEL TRIAZINE DERIVATIVE” (CARNA BIOSCIENCES, INC., priority 2012, published 2015), this text covers IC50 for 27 compounds.

Chain of Dephosphorylated BTK (Q06187 whole entry): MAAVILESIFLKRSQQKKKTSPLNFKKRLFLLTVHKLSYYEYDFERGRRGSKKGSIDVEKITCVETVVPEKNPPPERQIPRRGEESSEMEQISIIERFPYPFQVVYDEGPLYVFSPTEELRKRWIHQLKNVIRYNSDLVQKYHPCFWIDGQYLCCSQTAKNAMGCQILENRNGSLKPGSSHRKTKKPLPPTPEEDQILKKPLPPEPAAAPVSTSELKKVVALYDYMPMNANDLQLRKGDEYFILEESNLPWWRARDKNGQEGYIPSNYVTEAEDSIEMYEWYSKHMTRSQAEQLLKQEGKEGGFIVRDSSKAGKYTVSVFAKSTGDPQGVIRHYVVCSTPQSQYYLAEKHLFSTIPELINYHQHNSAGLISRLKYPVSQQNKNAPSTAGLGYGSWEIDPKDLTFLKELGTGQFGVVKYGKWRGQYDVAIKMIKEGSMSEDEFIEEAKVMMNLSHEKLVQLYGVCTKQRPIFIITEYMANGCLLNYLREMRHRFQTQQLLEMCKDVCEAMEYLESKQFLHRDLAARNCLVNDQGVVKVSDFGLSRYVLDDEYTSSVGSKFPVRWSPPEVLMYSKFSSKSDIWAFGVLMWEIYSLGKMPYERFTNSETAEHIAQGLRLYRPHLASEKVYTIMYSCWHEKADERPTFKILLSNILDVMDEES

This test has as its target Dephosphorylated BTK (Homo sapiens, UniProt Q06187). In words: Test of activity inhibition against dephosphorylated BTK (mobility shift assay).
Procedure: Kinase activity was measured by a mobility shift assay (MSA) method using QuickScout Screening Assist (trademark) MSA (commercially available kit, manufactured by Carna Biosciences, Inc.). FITC-labeled SRCtide peptide supplied with the kit was used as a substrate of a kinase reaction.
IC50 value was calculated by regression analysis of the inhibition ratio and the test compound concentration (logarithm).
Dephosphorylated BTK was obtained by adding a A protein phosphatase (Code No. P0753S, manufactured by New England BioLabs Inc.) and MnCl2 to a biotinylated BTK protein BTN-BTK (manufactured by Carna Biosciences, Inc.) enzyme solution so as to adjust the concentrations to 10 U/μg and 2 mM, respectively, reacting the mixture at 4° C. overnight, removing the A protein phosphatase through anti-[sequence]-tag antibody agarose gel chromatography, and performing buffer exchange using 10DG Desalting Column.
Usually IC50 stands for the midpoint of a concentration-inhibition curve. With `Cn1cc(Nc2nc(N)nc(-c3cccc(N4CCc5cc(C6CC6)cc(F)c5C4=O)c3CO)n2)cc1C(=O)O` [Example 224, 4-({4-Amino-6-[3-(6-cyclo-propyl-8-fluoro-1-oxo-3,4-dihydroisoquinolin-2(1H)-yl)-2-(hydroxy-methyl)phenyl]-1,3,5-triazin-2-yl}ami-no)-1-methyl-1H-pyr-role-2-carboxylic acid], the concentration for half-maximal inhibition (IC50) came to 6.6 nM. In the case of `Cc1c(NC(=O)c2ccc(C(C)(C)C)cc2)cccc1-c1ncnc(Nc2ccc(C3C(=O)N(C)CCN3C)cc2)n1` (stereo not drawn) [Example 37, 4-(tert-Butyl)-N-[3-(4-{[4-(1,4-dimethyl-3-oxopiperazin-2-yl)phe-nyl]amino}-1,3,5-tri-azin-2-yl)-2-methyl-phenyl]benzamide] it was 2.7 nM; in that of `CN(C)CCCOc1ccc(Nc2nc(N)nc(-c3cccc(NC(=O)c4cc5c(s4)CCCC5)c3CO)n2)cc1` [Example 135, N-{3-[4-Amino-6-({4-[3-(dimethylamino)prop-oxy]phenyl}amino)-1,3,5-triazin-2-yl]-2-(hy-droxymethyl)phenyl}-4,5,6,7-tetrahydro-benzo[b]thiophene-2-carboxamide], 1.3 nM. As for `Nc1nc(Nc2cccc(N3CCOCC3)c2)nc(-c2cccc(N3CCc4cc(C5CC5)cc(F)c4C3=O)c2CO)n1` [Example 243, 2-(3-{4-Amino-6-[(3-morpho-linophenyl)amino]-1,3,5-triazin-2-yl}-2-(hydroxymethyl)phe-nyl)-6-cyclopropyl-8-fluoro-3,4-dihydroiso-quinolin-1(2H)-one], the figure is 2.3 nM; as for `CC(C)(C)c1ccc(C(=O)Nc2cccc(-c3nc(N)nc(Nc4ccc(OCCO)cc4)n3)c2CO)cc1` [Example 184, N-[3-(4-Amino-6-{[4-(2-hydroxyethoxy)phenyl]amino}-1,3,5-triazin-2-yl)-2-(hydroxymeth-yl)phenyl]-4-(tert-butyl)benzamide], 0.8 nM. For the compound `Nc1nc(Nc2ccc(O)cc2)nc(-c2cccc(NC(=O)c3cc4c(s3)CCCC4)c2CO)n1` [Example 136, N-(3-{4-Amino-6-[(4-hy-droxyphenyl)amino]-1,3,5-triazin-2-yl}-2-(hydroxymethyl)phenyl)-4,5,6,7-tetrahydro benzo[b]thiophene-2-carboxamide], the IC50 came out at 1.3 nM. In the case of `Cc1nccn1-c1ccc(Nc2nc(N)nc(-c3cccc(NC(=O)c4ccc(C(C)(C)C)cc4)c3CO)n2)cc1` [Example 172, N-[3-(4-Amino-6-{[4-(2-methyl-1H-imidazol-1-yl)phenyl]amino}-1,3,5-triazin-2-yl)-2-(hy-droxymethyl)phenyl]-4-(tert-butyl)benzamide] it was 0.6 nM. As for `COCCOc1ccc(Nc2nc(N)nc(-c3cccc(NC(=O)c4ccc(C(C)(C)C)cc4)c3CO)n2)cc1OCCOC` [Example 90, N-[3-(4-Amino-6-{[3,4-bis(2-methoxyethoxy)phenyl]amino}-1,3,5-tri-azin-2-yl)-2-(hydroxy-methyl)phenyl]-4-(tert-butyl)benzamide], the figure is 0.7 nM; as for `CC(C)(C)c1ccc(C(=O)Nc2cccc(-c3nc(N)nc(Nc4ccc(C[C@H]5COC(=O)N5)cc4)n3)c2CO)cc1` [Example 203, N-{3-[4-Amino-6-({4-[(2-oxooxazolidin-4-yl)methyl]phenyl}amino)-1,3,5-triazin-2-yl]-2-(hydroxymethyl)phe-nyl}-4-(tert-butyl) benzamide], 0.4 nM.

`CC(C)(C)c1ccc(C(=O)Nc2cccc(-c3nc(N)nc(Nc4ccc(OCCN5CCCC5)cc4)n3)c2CO)cc1` [Example 152, N-{3-[4-Amino-6-({4-[2-(pyrrolidin-1-yl)eth-oxy]phenyl}amino)-1,3,5-triazin-2-yl]-2-(hy-droxymethyl)phenyl}-4-(tert-butyl)benzamide]: the IC50 is 1.2 nM.

For `Cn1cc(Nc2nc(N)nc(-c3cccc(N4CCc5cc(C6CC6)cc(F)c5C4=O)c3CO)n2)cc1C#N` [Example 269, 4-({4-Amino-6-[3-(6-cyclo-propyl-8-fluoro-1-oxo-3,4-dihydroisoquino-lin-2(1H)-yl)-2-(hy-droxymethyl)phenyl]-1,3,5-triazin-2-yl}ami-no)-1-methyl-1H-pyrrole-2-carbonitrile], the IC50 worked out at 0.8 nM.

For the compound `Nc1nc(Nc2cnn(CCO)c2)nc(-c2cccc(N3CCc4cc(C5CC5)cc(F)c4C3=O)c2CO)n1` [Example 179, 2-[3-(4-Amino-6-{[1-(2-hydroxyethyl)-1H-py-razol-4-yl]amino}-1,3,5-triazin-2-yl)-2-(hy-droxymethyl)phenyl]-6-cyclopropyl-8-fluoro-3,4-dihydroisoquino-lin-1(1H)-one], the IC50 came out at 0.9 nM. As for `Cc1c(NC(=O)c2ccc(C(C)(C)C)cc2)cccc1-c1ncnc(Nc2ccc(C(=O)NC(CO)CO)cc2)n1` [Example 19, 4-(tert-Butyl)-N-{3-[4-({4-[(1,3-dihydroxypropan-2-yl)carbamoyl]phenyl}amino)-1,3,5-triazin-2-yl]-2-methyl-phenyl}benzamide], the figure is 6.1 nM; as for `CC(C)(C)c1ccc(C(=O)Nc2cccc(-c3nc(N)nc(Nc4ccc(S(N)(=O)=O)cc4)n3)c2CO)cc1` [Example 118, N-(3-{4-Amino-6-[(4-sulfa-moylphenyl)amino]-1,3,5-triazin-2-yl}-2-(hydroxymethyl)phe-nyl)-4-(tert-butyl)benz-amide], 0.8 nM. In the case of `CC(C)(C)c1ccc(C(=O)Nc2cccc(-c3nc(N)nc(Nc4ccc(-c5nn[nH]n5)cc4)n3)c2CO)cc1` [Example 202, N-[3-(4-{[4-(1H-Tetra-zol-5-yl)phenyl]amino}-6-amino-1,3,5-triaz-in-2-yl)-2-(hydroxy-methyl)phenyl]-4-(tert-butyl)benzamide] it was 1.3 nM; in that of `CCn1ccc(Nc2nc(N)nc(-c3cccc(N4CCc5cc(C6CC6)cc(F)c5C4=O)c3CO)n2)c1` [Example 231, 2-(3-{4-Amino-6-[(1-eth-yl-1H-pyrrol-3-yl)ami-no]-1,3,5-triazin-2-yl}-2-(hydroxymethyl)phenyl)-6-cyclopropyl-8-fluoro-3,4-dihydro-isoquinolin-1(2H)-one], 1.7 nM. As to `CC(C)(C)OC(=O)Nc1ccc(Nc2nc(N)nc(-c3cccc(NC(=O)c4ccc(C(C)(C)C)cc4)c3CO)n2)cc1` [Example 120, tert-Butyl {4-[(4-amino-6-{3-[4-(tert-butyl)benzamido]-2-(hydroxymethyl)phe-nyl}-1,3,5-triazin-2-yl)amino]phenyl}carbamate], the IC50 is 5.5 nM.

As for `CC(C)(C)c1ccc(C(=O)Nc2cccc(-c3nc(N)nc(Nc4ccc5nc[nH]c5c4)n3)c2CO)cc1` [Example 144, N-(3-{4-[(1H-Benzo[d]imidazol-6-yl)amino]-6-amino-1,3,5-triazin-2-yl}-2-(hydroxymeth-yl)phenyl)-4-(tert-butyl)benzamide], the IC50 turned out to be 1.9 nM. As for `CC(C)(O)Cn1cc(Nc2nc(N)nc(-c3cccc(N4CCc5cc(C6CC6)cc(F)c5C4=O)c3CO)n2)cn1` [Example 278, 2-[3-(4-Amino-6-{[1-(2-hydroxy-2-methylpro-pyl)-1H-pyrazol-4-yl]amino}-1,3,5-triazin-2-yl)-2-(hydroxymethyl)phenyl]-6-cyclopropyl-8-fluoro-3,4-dihydro-isoquinolin-1(2H)-one], the figure is 2.2 nM; as for `CC(C)(C)c1ccc(C(=O)Nc2cccc(-c3nc(N)nc(Nc4ccc(OCCN5CCOCC5)cc4)n3)c2CO)cc1` [Example 78, N-[3-(4-Amino-6-{[4-(2-morpholinoethoxy)phe-nyl]amino}-1,3,5-tri-azin-2-yl)-2-(hydroxy-methyl)phenyl]-4-(tert-butyl)benzamide], 1.2 nM; as for `Nc1nc(Nc2cnn(CC(F)F)c2)nc(-c2cccc(N3CCc4cc(C5CC5)cc(F)c4C3=O)c2CO)n1` [Example 275, 2-[3-(4-Amino-6-{[1-(2,2-difluoroethyl)-1H-pyrazol-4-yl]amino}-1,3,5-triazin-2-yl)-2-(hydroxymethyl)phenyl]-6-cyclopropyl-8-fluoro-3,4-dihydroisoquinolin-1(2H)-one], 1.7 nM. As for `CC(C)(C)c1ccc(C(=O)Nc2cccc(-c3nc(N)nc(Nc4ccc(O)cc4)n3)c2CO)cc1` [Example 65, N-(3-{4-Amino-6-[(4-hy-droxyphenyl)amino]-1,3,5-triazin-2-yl}-2-(hydroxymethyl)phenyl)-4-(tert-butyl)benza-mide], the figure is 0.6 nM; as for `Cc1c(NC(=O)c2ccc(C(C)(C)C)cc2)cccc1-c1nc(N)nc(Nc2ccc(N3CCN(CCO)CC3)cc2)n1` [Example 93, N-{3-[4-Amino-6-({4-[4-(2-hydroxyethyl)piperazin-1-yl]phenyl}ami-no)-1,3,5-triazin-2-yl]-2-methylphenyl}-4-(tert-butyl)benzamide], 1.3 nM. Take `CC(C)(C)c1ccc(C(=O)Nc2cccc(-c3nc(N)nc(Nc4ccc(N5CCCC(O)C5)cc4)n3)c2CO)cc1` (stereo not drawn) [Example 125, N-[3-(4-Amino-6-{[4-(3-hydroxypiperidin-1-yl)phenyl]amino}-1,3,5-triazin-2-yl)-2-(hy-droxymethyl)phenyl]-4-(tert-butyl)benzamide]: the IC50 is 0.8 nM. As for `Cc1cc(Nc2nc(N)nc(-c3cccc(N4CCc5cc(C6CC6)cc(F)c5C4=O)c3CO)n2)n[nH]1` [Example 205, 2-(3-{4-Amino-6-[(5-meth-yl-1H-pyrazol-3-yl)amino]-1,3,5-triazin-2-yl}-2-(hydroxymeth-yl)phenyl)-6-cyclopro-pyl-8-fluoro-3,4-dihy-droisoquinolin-1(2H)-one], the figure is 9.9 nM; as for `Nc1nc(Nc2ccc(Cn3ccnc3)cc2)nc(-c2cccc(NC(=O)c3cc4c(s3)CCCC4)c2CO)n1` [Example 133, N-{3-[4-({4-[(1H-Imida-zol-1-yl)methyl]phe-nyl}amino)-6-amino-1,3,5-triazin-2-yl]-2-(hy-droxymethyl)phenyl}-4,5,6,7-tetrahydroben-zo[b]thiophene-2-carboxamide], 0.4 nM; as for `Cc1c(NC(=O)c2ccc(C(C)(C)C)cc2)cccc1-c1nc(N)nc(Nc2ccc(N3CCOC(CO)C3)cc2)n1` (stereo not drawn) [Example 92, N-{3-[4-Amino-6-({4-[2-(hydroxymethyl)morpho-lin]phenyl}amino)-1,3,5-triazin-2-yl]-2-methylphenyl}-4-(tert-butyl)benzamide], 0.9 nM.
